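Following 48 hours of exposure in 96-well plates, responses at five concentrations were used to interpolate endpoints linearly. TGI denotes the concentration required for complete inhibition of growth.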
Legend:
Assay in all cases: DTP human tumour cell line panel, 48 h
786-0 renal = system: 786-0 renal
A498 renal = system: A498 renal
A549 NSCLC = system: A549 NSCLC
ACHN renal = system: ACHN renal
CAKI-1 renal = system: CAKI-1 renal
CCRF-CEM leukemia = system: CCRF-CEM leukemia
COLO 205 colon = system: COLO 205 colon
DU-145 prostate = system: DU-145 prostate
EKVX NSCLC = system: EKVX NSCLC
HCC-2998 colon = system: HCC-2998 colon
HCT-116 colon = system: HCT-116 colon
HCT-15 colon = system: HCT-15 colon
HL-60(TB) leukemia = system: HL-60(TB) leukemia
HOP-92 NSCLC = system: HOP-92 NSCLC
HS 578T breast = system: HS 578T breast
HT29 colon = system: HT29 colon
IGROV1 ovarian = system: IGROV1 ovarian
K-562 leukemia = system: K-562 leukemia
KM12 colon = system: KM12 colon
LOX IMVI melanoma = system: LOX IMVI melanoma
M14 melanoma = system: M14 melanoma
MALME-3M melanoma = system: MALME-3M melanoma
MCF7 breast = system: MCF7 breast
MDA-MB-231 breast = system: MDA-MB-231 breast
MDA-MB-435 = system: MDA-MB-435
MDA-N = system: MDA-N
MOLT-4 leukemia = system: MOLT-4 leukemia
NCI-H226 lung = system: NCI-H226 lung
NCI-H23 lung = system: NCI-H23 lung
NCI-H460 lung = system: NCI-H460 lung
NCI-H522 lung = system: NCI-H522 lung
NCI/ADR-RES ovarian = system: NCI/ADR-RES ovarian
OVCAR-3 ovarian = system: OVCAR-3 ovarian
OVCAR-4 ovarian = system: OVCAR-4 ovarian
OVCAR-5 ovarian = system: OVCAR-5 ovarian
OVCAR-8 ovarian = system: OVCAR-8 ovarian
PC-3 prostate = system: PC-3 prostate
RPMI-8226 leukemia = system: RPMI-8226 leukemia
RXF 393 renal = system: RXF 393 renal
SF-295 CNS = system: SF-295 CNS
SF-539 CNS = system: SF-539 CNS
SK-MEL-2 melanoma = system: SK-MEL-2 melanoma
SK-MEL-28 melanoma = system: SK-MEL-28 melanoma
SK-MEL-5 melanoma = system: SK-MEL-5 melanoma
SK-OV-3 ovarian = system: SK-OV-3 ovarian
SNB-75 CNS = system: SNB-75 CNS
SR leukemia = system: SR leukemia
SW-620 colon = system: SW-620 colon
T-47D breast = system: T-47D breast
TK-10 renal = system: TK-10 renal
U251 CNS = system: U251 CNS
UACC-257 melanoma = system: UACC-257 melanoma
UACC-62 melanoma = system: UACC-62 melanoma
HOP-62 NSCLC = system: HOP-62 NSCLC
SF-268 CNS = system: SF-268 CNS
SN12C renal = system: SN12C renal
SNB-19 CNS = system: SNB-19 CNS
UO-31 renal = system: UO-31 renal

In the case of `O/N=C(\CC(O)(C(F)(F)F)C(F)(F)F)c1cccc(Cl)c1`, the TGI (786-0 renal) is reported as > 100 µM, the TGI (A498 renal) is reported as > 100 µM and the TGI (A549 NSCLC) is reported as > 100 µM. It also gave a TGI (ACHN renal) of 65.9 µM, a TGI (CAKI-1 renal) of 68.7 µM and a TGI (CCRF-CEM leukemia) of 47.4 µM. The TGI (COLO 205 colon) was > 100 µM, the TGI (DU-145 prostate) was > 100 µM and the TGI (EKVX NSCLC) was 67.6 µM. For the same compound, the TGI (HCC-2998 colon) was > 100 µM, the TGI (HCT-116 colon) was > 100 µM and the TGI (HCT-15 colon) was > 100 µM. For the same compound, the TGI (HL-60(TB) leukemia) was 82.2 µM, the TGI (HOP-92 NSCLC) was 56.6 µM and the TGI (HS 578T breast) was 53 µM. For the same compound, the TGI (HT29 colon) was > 100 µM, the TGI (IGROV1 ovarian) was 84.4 µM and the TGI (K-562 leukemia) was > 100 µM. The TGI (KM12 colon) was > 100 µM, the TGI (LOX IMVI melanoma) was 62.5 µM and the TGI (M14 melanoma) was 62.7 µM. The TGI (MALME-3M melanoma) was > 100 µM, the TGI (MCF7 breast) was > 100 µM and the TGI (MDA-MB-231 breast) was 56.9 µM. The TGI (MDA-MB-435) was 85.9 µM, the TGI (MDA-N) was > 100 µM and the TGI (MOLT-4 leukemia) was 38.8 µM. For the same compound, the TGI (NCI-H226 lung) was 60.2 µM, the TGI (NCI-H23 lung) was 49.2 µM and the TGI (NCI-H460 lung) was > 100 µM. For the same compound, the TGI (NCI-H522 lung) was > 100 µM, the TGI (NCI/ADR-RES ovarian) was > 100 µM and the TGI (OVCAR-3 ovarian) was 49.4 µM. For the same compound, the TGI (OVCAR-4 ovarian) was > 100 µM, the TGI (OVCAR-5 ovarian) was > 100 µM and the TGI (OVCAR-8 ovarian) was > 100 µM. For the same compound, the TGI (PC-3 prostate) was 83.3 µM, the TGI (RPMI-8226 leukemia) was > 100 µM and the TGI (RXF 393 renal) was 46.5 µM. For the same compound, the TGI (SF-295 CNS) was > 100 µM, the TGI (SF-539 CNS) was 85.9 µM and the TGI (SK-MEL-2 melanoma) was 63.5 µM. The TGI (SK-MEL-28 melanoma) was > 100 µM, the TGI (SK-MEL-5 melanoma) was 31.6 µM and the TGI (SK-OV-3 ovarian) was 58.5 µM. The TGI (SNB-75 CNS) was 57.6 µM, the TGI (SR leukemia) was > 100 µM and the TGI (SW-620 colon) was > 100 µM. For the same compound, the TGI (T-47D breast) was 79.7 µM, the TGI (TK-10 renal) was 98.8 µM and the TGI (U251 CNS) was 49 µM. The TGI (UACC-257 melanoma) was > 100 µM and the TGI (UACC-62 melanoma) was > 100 µM.

For `O=C1NC(N2CCCCC2)=N/C1=C\c1ccccc1O`, the TGI (786-0 renal) was > 100 µM, the TGI (A498 renal) was > 100 µM and the TGI (A549 NSCLC) was > 100 µM. The TGI (ACHN renal) was > 100 µM, the TGI (CAKI-1 renal) was > 100 µM and the TGI (CCRF-CEM leukemia) was > 100 µM. For the same compound, the TGI (COLO 205 colon) was > 100 µM, the TGI (DU-145 prostate) was > 100 µM and the TGI (EKVX NSCLC) was > 100 µM. For the same compound, the TGI (HCT-116 colon) was > 100 µM, the TGI (HCT-15 colon) was > 100 µM and the TGI (HL-60(TB) leukemia) was > 100 µM. For the same compound, the TGI (HOP-62 NSCLC) was > 100 µM, the TGI (HOP-92 NSCLC) was > 100 µM and the TGI (HS 578T breast) was > 100 µM. The TGI (HT29 colon) was > 100 µM, the TGI (IGROV1 ovarian) was > 100 µM and the TGI (K-562 leukemia) was > 100 µM. The TGI (KM12 colon) was > 100 µM, the TGI (LOX IMVI melanoma) was > 100 µM and the TGI (M14 melanoma) was > 100 µM. For the same compound, the TGI (MALME-3M melanoma) was > 100 µM, the TGI (MCF7 breast) was > 100 µM and the TGI (MDA-MB-231 breast) was > 100 µM. For the same compound, the TGI (MDA-MB-435) was > 100 µM, the TGI (MDA-N) was > 100 µM and the TGI (MOLT-4 leukemia) was > 100 µM. For the same compound, the TGI (NCI-H226 lung) was > 100 µM, the TGI (NCI-H23 lung) was > 100 µM and the TGI (NCI-H522 lung) was > 100 µM. For the same compound, the TGI (NCI/ADR-RES ovarian) was > 100 µM, the TGI (OVCAR-3 ovarian) was > 100 µM and the TGI (OVCAR-4 ovarian) was 91.4 µM. The TGI (OVCAR-5 ovarian) was > 100 µM, the TGI (OVCAR-8 ovarian) was > 100 µM and the TGI (PC-3 prostate) was > 100 µM. For the same compound, the TGI (RPMI-8226 leukemia) was > 100 µM, the TGI (RXF 393 renal) was > 100 µM and the TGI (SF-268 CNS) was > 100 µM. The TGI (SF-295 CNS) was > 100 µM, the TGI (SF-539 CNS) was > 100 µM and the TGI (SK-MEL-2 melanoma) was > 100 µM. For the same compound, the TGI (SK-MEL-28 melanoma) was > 100 µM, the TGI (SK-MEL-5 melanoma) was > 100 µM and the TGI (SK-OV-3 ovarian) was > 100 µM. The TGI (SN12C renal) was > 100 µM, the TGI (SNB-19 CNS) was > 100 µM and the TGI (SNB-75 CNS) was > 100 µM. For the same compound, the TGI (SW-620 colon) was > 100 µM, the TGI (T-47D breast) was > 100 µM and the TGI (TK-10 renal) was > 100 µM. The TGI (U251 CNS) was > 100 µM, the TGI (UACC-257 melanoma) was > 100 µM and the TGI (UO-31 renal) was > 100 µM.

Source: PubChem BioAssay (NCI)
